This note sets out measurements from patent publication US5587373A, “2-acyloxycephem derivatives” (Farmitalia Carlo Erba S.r.l., priority 1993, dated 1996).

Structures are written as SMILES. Where two headings read alike, the source gives them in different places.

For this assay, the target named is T1, human leucocyte elastase (HLE) (Homo sapiens, UniProt P08246).
T1 construct: purchased Calbiochem
T1 sequence (P08246 30-267): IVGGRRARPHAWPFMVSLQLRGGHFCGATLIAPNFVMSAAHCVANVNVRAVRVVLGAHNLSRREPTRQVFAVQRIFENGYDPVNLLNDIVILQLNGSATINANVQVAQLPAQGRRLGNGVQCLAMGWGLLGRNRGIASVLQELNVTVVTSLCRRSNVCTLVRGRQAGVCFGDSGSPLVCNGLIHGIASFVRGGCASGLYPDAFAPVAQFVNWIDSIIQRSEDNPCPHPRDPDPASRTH
The assay is described as follows: HLE (human leucocyte elastase) inhibition kinetics. The note with it: 37° C., pH 7.4; for kinact/KI: rate of formation of the HLE-inhibitor complex, read-out: "Efficacy" K5 /Ki. The format is biochemical. An excerpt: Vs =steady state rate Vz =zero time rate Vo =rate at [I]=0 Km =Michaelis constant for the enzyme substrate pair (independently determined under the same experimental conditions). Full details of the Experimental Protocol are reported in […] et al., Eur. J. Med. Chem. 1992, 27, 875-890.

[1] abbreviates: Table 2, apparent dissociation constant of HLE-inhibitor complex at steady rate, read-out: Potency Ki^SS.
Setting [2] is: Table 3, * outside determination limits.
Where [3] appears, read: Table 3, * outside determination limits, read-out: "Potency" Ki ^33.

For the compound `CO[C@H]1C(=O)N2C(C(=O)C(C)(C)C)=C(C)C(OC(=O)c3ccccc3)S(=O)(=O)[C@H]12` (stereo partly drawn) [Compound 2, 2-Benzoyloxy-4-tert-butylcarbonyl-7α-methoxy-3-methyl-3-cephem 1,1-dioxide], the Ki under setting [1] is under 0.002 µM. In the case of `CO[C@H]1C(=O)N2C(C(=O)C(C)(C)C)=C(C)C(OC(=O)c3ccc4ccccc4c3)S(=O)(=O)[C@H]12` (stereo partly drawn) [Compound 11], under setting [2], the “"Efficacy" K5 /K1” value was under 2 M⁻¹ s⁻¹. On the same count and under the same terms, under `CO[C@H]1C(=O)N2C(C(=O)C(C)(C)C)=C(CSc3nnnn3C)C(OC(=O)c3ccccc3)S(=O)(=O)[C@H]12` (stereo partly drawn) [Compound 19, 2-Benzoyloxy-4-tert-butylcarbonyl-7α-methoxy-3-(1-methyl-1,2,3,4-tetrazol-5-yl)thiomethyl-3-cephem 1,1-dioxide] stands under 2 M⁻¹ s⁻¹; under `CO[C@H]1C(=O)N2C(C(=O)c3ccccc3)=C(C)C(OC(=O)c3ccccc3)S(=O)(=O)[C@H]12` (stereo partly drawn) [Compound 24, 2-Benzoyloxy-7α-methoxy-3-methyl-4-phenylcarbonyl-3-cephem 1,1-dioxide], 8 M⁻¹ s⁻¹. In the case of `CO[C@H]1C(=O)N2C(C(=O)c3ccccc3)=C(C)C(OC(=O)c3ccc(C(=O)O)cc3)S(=O)(=O)[C@H]12` (stereo partly drawn) [Compound 25, 4-Benzoyl-2-(4-carboxybenzoyl)oxy-7α-methoxy-3-methyl-3-cephem 1,1-dioxide], the “"Efficacy" K5 /K1” value under setting [2] worked out at 29 M⁻¹ s⁻¹. Moreover, the Ki under setting [3] is 34 µM. The matching figures for `CO[C@H]1C(=O)N2C(C(=O)C(C)(C)C)=C(C)C(OC(=O)c3ccc(CSc4nc(=O)c(O)nn4C)cc3)S(=O)(=O)[C@H]12` (stereo partly drawn) [Compound 38, 4-tert-Butylcarbonyl-2-{4-[(2,5-dihydro-6-hydroxy-2-methyl-5-oxo-1,2,4-triazin-3-yl)thiomethyl]benzoyloxy}-7α-methoxy-3-methyl-3-cephem 1,1-dioxide]: under 2 M⁻¹ s⁻¹ and 700 µM. The matching figures for `CO[C@H]1C(=O)N2C(C(=O)C(C)(C)C)=C(C)C(OC(=O)c3ccc(C(=O)c4ccccc4)cc3)S(=O)(=O)[C@H]12` (stereo partly drawn) [Compound 83, 2-[4-(Benzoyl)benzoyloxy]-4-tert-butylcarbonyl-7α-methoxy-3-methyl-3-cephem 1,1-dioxide]: 2 M⁻¹ s⁻¹ and 500 µM.

As for `CCCCC(CC)C(=O)OC1C(C)=C(C(=O)C(C)(C)C)N2C(=O)[C@H](OC)[C@H]2S1(=O)=O` (stereo partly drawn) [Compound 96, 4-tert-Butylcarbonyl-2-(2-ethylhexanoyl)oxy-7α-methoxy-3-methyl-3-cephem 1,1-dioxide], the “"Efficacy" K5 /K1” value under setting [2] is under 2 M⁻¹ s⁻¹. As to `CO[C@H]1C(=O)N2C(C(=O)C(C)(C)C)=C(C)CS(=O)(=O)[C@H]12` [FCE 25500, reference compound], the Ki under setting [1] was 1.3 µM. The kinact/KI (Table 2) came to 60 M⁻¹ s⁻¹. The like results for `CO[C@H]1C(=O)N2C(C(=O)N3CCCC3)=C(CSc3nc(=O)c(O)nn3C)CS(=O)(=O)[C@H]12` [L-659,286, reference compound] were, in that order, 0.075 µM and 9200 M⁻¹ s⁻¹.
